From patent US9765019B2, “Small-molecule-targeted protein degradation” (Brandeis University, priority 2011, dated 2017)
Entries after “also recorded” stand apart in the source; their conditions may differ. Residues, ends and D or L forms follow the SMILES beside them. *: point of attachment. Cbz = O=C(OCc1ccccc1)*

Assays:
[1] = molecular target: T1, human glutathione-S-transferase α-1 (Homo sapiens, UniProt P08263); assay: Degradation of pre-inhibited GST-α-1 in cell lysates (Western blot); assay type: biochemical; conditions: for Degradation of GST-α-1 in cell lysates: protein pre-treated with inhibitor, lysates from reticulocytes, HeLa, Cos and NIH 3T3 cells
T1 construct: HA (N); made in house; host or cells: Escherichia coli (pOXO4-α1 vector)
T1 sequence (P08263 1-222): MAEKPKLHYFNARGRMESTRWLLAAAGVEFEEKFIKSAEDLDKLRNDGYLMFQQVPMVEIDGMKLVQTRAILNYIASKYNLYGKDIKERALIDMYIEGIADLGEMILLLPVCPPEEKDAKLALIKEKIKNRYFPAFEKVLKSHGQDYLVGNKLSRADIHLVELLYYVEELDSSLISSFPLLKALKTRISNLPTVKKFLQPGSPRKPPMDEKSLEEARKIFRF
Method: The gel was transferred onto a polyvinyldifluoride membrane in Towbin (3 g Tris/14.4 g glycine) buffer, 100V for 1.2 hours then 40V for 3 hours for 18% gels, and 100 V for 1.2 hours for 12% gels. The membrane was blocked with 3% non-fat milk in Tris buffered saline (100 mM Tris base, 500 mM NaCl, pH 7.6) for one hour, then directly added to a solution of anti HA-HRP conjugated antibody in 0.5% non-fat milk in Tris buffered saline with 0.05% tween-20 for 2 hours. Membrane was washed twice with Tris buffered saline with 0.05% Tween 20 for 10 minutes, then washed once with Tris buffered saline for 15 minutes. The residual buffer was removed then exposed to ECL Plus™ (GE healthcare) for 5 minutes. Membrane was visualized by exposure to film (HyBlot CL, Denville Scientific). For in cell degradation assays, the membrane was cut in half (at approximately 40 kiloDaltons) and the lower molecular weight portion was probed and visualized with anti-GAPDH-HRP, protocol same as for anti-HA except Tris buffered saline contained 150 mM NaCl, not 500 mM. The higher molecular weight portion of the membrane was probed and visualized with anti-HA-HRP.
Human glutathione-S-transferase α-1 bearing an N-terminal HA tag was recombinantly expressed in Escherichia coli using the pOXO4-α1 vector. This was purified using glutathione affinity chromatography (GST-Bind™, Novagen). Escherichia coli dihydrofolate reductase bearing an N-terminal (His)6 tag and a C-terminal HA tag was recombinantly expressed in Escherichia coli using a pET28a vector. This was purified using Ni-NTA resin (Qiagen).
The cells were then serum starved for 2 days in the case of Cos and HeLa cells and 1 day in the case of NIH3T3 cells. The cells were washed with phosphate buffered saline and then trypsinized. Cells were collected, and an equal volume of complete medium was added. Cells were pelleted by centrifugation and the supernatant was aspirated. The cell pellet was washed three times with phosphate buffered saline. Cell pellets were stored at −80° C. until required. Cells were thawed on ice and maintained at 4° C. until required for the assay. […] The cells were lysed in a Dounce homogenizer (10 strokes), and then centrifuged at 14000 rpm for 30 minutes. The clarified lysate was normalized to an optimized concentration of 1 mg/mL (Bradford assay, Biorad®, as per manufacturer's instructions, using immunoglobulin as a standard) with lysis buffer. A 10×ATP regeneration buffer was made consisting of the following 1 mg/mL creatine kinase (Roche Diagnostics®), 600 mM creatine phosphate, 100 mM ATP, 200 mM Tris pH 8.0, 600 mM MgCl2. This was incubated at 37° C. for 30 minutes prior to use. Assays were conducted in […] total volume [including 1×ATP regeneration buffer, and 120 ng of HA-tagged protein (1 μL) preinhibited with 100 μM ethacrynic acid-derived inhibitor, or 1 μM trimethoprim-derived inhibitor] in 250 μL PCR tubes. Prior to assay 50 μL Chill Out wax (Biorad®) was overlaid on the top of the vial. 15 μL aliquots were extracted and diluted into 6 μL of 5× reducing SDS PAGE loading buffer and immediately frozen by being placed into dry ice. These were stored at −80° C. until required. Samples were thawed at 100° C. and continued to be boiled for 5 minutes. The samples were then centrifuged at 14,000 rpm on a microcentrifuge for 30 minutes and loaded onto an 18% polyacrylamide SDS PAGE gel, and Western blotted as per Example 2.

eDHFR-HA-GST-α1 = molecular target: T2, eDHFR-HA-GST-α1 (UniProt P08263+P0ABQ4); assay: Degradation of eDHFR-HA-GST-α1 ectopically expressed in HeLa cells; assay type: cell-based; conditions: for Degradation of eDHFR-HA-GST-α1: cycloheximide treated HeLa cells
T2 construct: expressed in transfected cells; host or cells: HeLa cells
T2 sequence (P0ABQ4+P08263 with tags, fused parts or gaps): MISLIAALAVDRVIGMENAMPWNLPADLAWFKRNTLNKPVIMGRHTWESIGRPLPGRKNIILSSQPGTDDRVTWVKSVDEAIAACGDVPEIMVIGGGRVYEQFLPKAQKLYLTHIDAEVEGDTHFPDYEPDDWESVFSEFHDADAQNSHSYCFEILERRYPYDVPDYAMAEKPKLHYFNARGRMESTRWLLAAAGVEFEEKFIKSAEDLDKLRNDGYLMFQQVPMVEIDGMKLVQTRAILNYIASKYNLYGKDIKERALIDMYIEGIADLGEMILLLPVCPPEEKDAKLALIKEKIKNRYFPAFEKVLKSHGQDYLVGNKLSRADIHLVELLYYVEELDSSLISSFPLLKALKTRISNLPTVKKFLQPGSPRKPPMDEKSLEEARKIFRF
Description: FIG. 5 depicts degradation of GST-α1-HA in HeLa cell lysates and eDHFR-HA-GST in HeLa cells.

endogenous GST-π = assay: Degradation of endogenous GST-π in whole cells (immunoblot); assay type: cell-based; conditions: two hours
Method: FIG. 12 depicts degradation of endogenous GST-π. Cells were incubated with EA-Boc3Arg for 2 hours. Degradation was monitored by immuno-blotting with anti-GST antibodies. EA=right bar; EA-Boc3-Arg=left bar.
The ability of EA-Boc3Arg to degrade endogenous GST-π in the context of whole cells was also investigated. […] The Boc3Arg moiety can regulate endogenous protein levels in vivo.

proteasome = assay: Effect of proteasome inhibitors on Boc3Arg-induced degradation (lysates and whole HeLa cells); conditions: GST-α-1 in cell lysates; eDHFR fusion proteins in HeLa cells
eDHFR-HA-GFP = eDHFR-HA-GFP (Escherichia coli, UniProt P0ABQ4); conditions: transfected HeLa cells
Method: FIG. 6 depicts degradation of eDHFR-HA in cell lysates and degradation of eDHFR fusion proteins in HeLa cells. (A) Degradation of eDHFR in HeLa cells lysates; (B) quantification of panel (A); (C) Global protein stability (GPS) assay. Cells co-express red fluorescent protein (RFP) and DHFR-HA-GFP from a bicistronic construct. Red and green fluorescence was measured by flow cytometry.
Protein degradation in whole cells was also assessed. eDHFR-HA-GFP was co-expressed with Discosoma sp. red fluorescent protein (RFP) in a bicistronic construct under control of a CMV promoter, with DHFR-HA-GFP translation occurring at the internal ribosome binding site. Thus a single mRNA is responsible for the production of both RFP and DHFR-HA-GFP, so that similar ratios of both proteins should be produced in all transfected cells. Changes in the relative intensities of red and green fluorescence are measured by flow cytometry, providing a facile and quantitative measure of the degradation of DHFR-HA-GFP in living cells and real time.
Cells were grown to 90% confluence in Dulbecco's Modified Minimal Essential Medium supplemented with 10% fetal bovine serum, 1×L-glutamine with no antibiotic in a 6 well plate. At this point the cells were serum starved, and then transfected using […] plasmid (expression driven by the cytomegalovirus promoter; gene coding for enhanced green fluorescent protein fused to the C-terminus of E. coli dihydrofolate reductase): 2 μL Transfectin™ (Biorad) per well. 48 hours after transfection, media was once again aspirated, and fresh serum free media was added. Cycloheximide (final concentration 100 μg/mL) was then added to the cells and after 5 minutes, 30 μM inhibitor was added. At each time point (45 minutes), media was aspirated, cells were trypsinized, centrifuged and washed three times with phosphate buffered saline. Cell pellets were flash frozen in dry ice, and then stored indefinitely at −80° C. The cells were thawed on ice, and then resuspended in lysis buffer (150 mM sucrose, 200 mM sodium phosphate, 43 mM MgCl2, pH 7.8, 0.1% triton X-100). Cells were lysed by two freeze/thaw cycles (−80° C. for 5 minutes, then 4° C. for 10 minutes). Lysate concentrations were normalized by dilution with lysis buffer such that they gave the same A595 when diluted into Bradford assay dye (Biorad).

**Q.** Which “Degradation of GST-α-1 in cell lysates” value [1] does the source give for `C=C(CC)C(=O)c1ccc(OCC(=O)NCCCCCCNC(=O)C(CCCNC(=N)NS(=O)(=O)c2ccc(C)cc2)NOC(=O)Cc2ccccc2)c(Cl)c1Cl` (centres unmarked) [Compound 2, N-(6-(2-(2,3-Dichloro-4-(2-methylenebutanoyl)phenoxy)acetamido)hexyl)-2-(benzylcarbonyloxyamino)-5-(3-tosylguanidino)pentanamide] here?
**A.** functional degradation tag

**Q.** What does the source list for `C=C(CC)C(=O)c1ccc(OCC(=O)O)c(Cl)c1Cl` [EA, ethacrynic acid, reference compound]?
**A.** Degradation of eDHFR-HA-GST-α1 (eDHFR-HA-GST-α1): does not; Degradation of GST-α-1 in cell lysates [1]: No degradation was observed

**Q.** Which results are given for `C=C(CC)C(=O)c1ccc(OCC(=O)NCCCCCCNC(=O)C(CCCNC(=NC(=O)OC(C)(C)C)NC(=O)OC(C)(C)C)NC(=O)OC(C)(C)C)c(Cl)c1Cl` (centres unmarked) [EA-Boc3Arg, N-(6-(2-(2,3-Dichloro-4-(2-methylenebutanoyl)phenoxy)acetamido)hexyl)-5-(2,3-di-t-butoxycarbonylguanidino)-2-(t-butoxycarbonylamino)pentanamide]?
**A.** Degradation of eDHFR-HA-GST-α1 (eDHFR-HA-GST-α1): can cause degradation; depletion in the GST-π signal (endogenous GST-π): 30%; Degradation of GST-α-1 in cell lysates [1]: Degradation was observed; Degradation of GST-α-1 in cell lysates ([1]; listed as 1): promotes the degradation

**Q.** How did the “Degradation of Fur-Boc3Arg-modified GST-α-1” value ([1]; NIH 3T3 cell lysates) turn out when `CC(C)(C)OC(=O)N=C(NCCCC(NC(=O)OC(C)(C)C)C(=O)NCCCCCCSc1ccc([N+](=O)[O-])c2nonc12)NC(=O)OC(C)(C)C` (centres unmarked) [Fur-Boc3Arg, 5-(2,3-Di-tert-butoxycarbonylguanidino)-2-(tert-butoxycarbonylamino)-N-(6-(7-nitrobenzo[c][1,2,5]oxadiazol-4-ylthio)hexyl)pentan amide] was run?
**A.** readily degraded; also recorded: induces the degradation

**Q.** How did the “Effect on Boc3Arg-induced degradation” value (proteasome) turn out when `CC(C)C[C@@H](C=O)NC(=O)[C@H](CC(C)C)NC(=O)[C@H](CC(C)C)NC(=O)OCc1ccccc1` [MG 132] (Cbz-Leu-Leu-Leu-aldehyde) was run?
**A.** block; also recorded: prevent degradation

**Q.** Which “Effect on degradation of eDHFR-HA-GFP” value (eDHFR-HA-GFP) does the source give for `Cc1cc(C(=O)CN2CCCC2)c(C)n1-c1ccc(F)cc1` [PU1, reference compound] here?
**A.** slower

**Q.** With `CC(C)C[C@H](NC(=O)[C@H](Cc1ccccc1)NC(=O)c1cnccn1)B(O)O` [bortezomib] as the molecule, how does the “Effect on degradation of eDHFR-HA-GST-α1 by EA-Boc3Arg” value (eDHFR-HA-GST-α1; cycloheximide and non-cycloheximide treated HeLa cells) read?
**A.** retards degradation

**Q.** And the “Effect on degradation of eDHFR-HA-GFP” value (eDHFR-HA-GFP)?
**A.** slower

**Q.** What about the “Effect on Boc3Arg-induced degradation” value (proteasome) of the same molecule?
**A.** block; also recorded: prevent degradation

**Q.** `CC(=O)N[C@@H](CSC(=O)[C@]1([C@@H](O)C(C)C)NC(=O)[C@H](C)[C@@H]1O)C(=O)O` [lactacystin] was tested. Which “Effect on Boc3Arg-induced degradation” value (proteasome) did it give?
**A.** block
